Patent publication US6436948B1, “Method for the treatment of psoriasis and genital warts” (priority 1995, dated 2002)
Entries after “also recorded” stand apart in the source; their conditions may differ.

Assays:
Leukemia P388 cells = test: In vivo treatment of leukemia P388 cells implanted ip in BDF1 mice; conditions: 25x2x5 mg/kg ip
Procedure: 10^6 Leukemia P388 cells were implanted ip to BDF1 mice obtained from Southern Research Institute, Alabama. (−)-OddC was administered ip twice daily for five days starting one day after tumor cell implantation.
FIG. 3 and Table 1 show the results of these studies.

RL-60(TB) = test: NCI cancer screening program, SRB: RL-60(TB); type: cell-based
K-562 = test: NCI cancer screening program, SRB: K-562; type: cell-based; conditions: Leukemia, PG +50, 48 hours
SR = test: NCI cancer screening program, SRB: SR; type: cell-based; conditions: Leukemia, PG +50, 48 hours
NCI-H23 = test: NCI cancer screening program, SRB: NCI-H23; type: cell-based; conditions: Non-Small Cell Lung Cancer, PG +50, 48 hours
NCI-H522 = test: NCI cancer screening program, SRB: NCI-H522; type: cell-based; conditions: Non-Small Cell Lung Cancer, PG +50, 48 hours
COLO205 = test: NCI cancer screening program, SRB: COLO205; type: cell-based; conditions: Colon Cancer
MALME-3M = test: NCI cancer screening program, SRB: MALME-3M; type: cell-based; conditions: Melanoma, PG +50, 48 hours
OVCAR-5 = test: NCI cancer screening program, SRB: OVCAR-5; type: cell-based; conditions: Ovarian Cancer, PG +50, 48 hours
SK-OV-3 = test: NCI cancer screening program, SRB: SK-OV-3; type: cell-based; conditions: Ovarian Cancer
ACHN = test: NCI cancer screening program, SRB: ACHN; type: cell-based; conditions: Renal Cancer, PG +50, 48 hours
SN12C = test: NCI cancer screening program, SRB: SN12C; type: cell-based; conditions: Renal Cancer, PG +50, 48 hours
UO-31 = test: NCI cancer screening program, SRB: UO-31; type: cell-based; conditions: Renal Cancer, PG +50, 48 hours
MCF7 = test: NCI cancer screening program, SRB: MCF7; type: cell-based; conditions: Breast Cancer, PG +50, 48 hours
MCF7/ADR-RES = test: NCI cancer screening program, SRB: MCF7/ADR-RES; type: cell-based; conditions: Breast Cancer
HS578T = test: NCI cancer screening program, SRB: HS578T; type: cell-based; conditions: Breast Cancer, PG +50, 48 hours
MDA-MB-435 = test: NCI cancer screening program, SRB: MDA-MB-435; type: cell-based; conditions: Breast Cancer
T-47D = test: NCI cancer screening program, SRB: T-47D; type: cell-based; conditions: Breast Cancer, PG +50, 48 hours
CEM cells = test: In vitro cytotoxicity, methylene blue assay / cell count: CEM; type: cell-based; conditions: Homo sapiens, CCRF-CEM, three generations, mean ± standard deviation of five experiments, read-out: ID50 (the source's name)
tumor cell lines tested = test: In vitro cytotoxicity, statement on all tumor cell lines tested; type: cell-based; conditions: all of the tumor cell lines tested
HepG2 tumors = test: HepG2 xenograft in NCr nude mice; type: in vivo, human; conditions: for Effect on HepG2 tumors in words: 25 mg/kg twice a day on days 0 through 4, NCr nude mice; for Net cell kill (log 10): HepG2 tumors, 25 mg/kg twice a day days 0 through 4
Procedure: FIG. 5 is a graph of the inhibition of human tumor growth by […]. Three to six week old NCr nude mice were inoculated subcutaneously in each flank with 2×10^6 HepG2 or DU-145 cells. Treatment was started when the tumors were in an advanced stage of growth. Drugs were administered twice a day on days 0 through 4 and tumor sizes were measured on the indicated days. […] Each data point represents the means±SD of 10 tumors in graph A and six tumors in graph B.
Three to six-week-old NCr nude mice (Taconic Immunodeficient Mice and Rats) were inoculated s.c. in each flank with 2×10^6HepG2 or DU-145 cells and tumors were allowed to grow. Treatment was started when the tumors were 100-250mg as determined by caliper measurement and calculated according to the formula:
Tumor Weight(mg)=length(mm)×width(mm^2)÷2
Drugs were given at the indicated doses on days 0 through 4 and tumor sizes were measured every several days. The tumor growth curves were generated as described in Bell, et al., Cancer(phila.) 36:2437-2440 (1975), and are illustrated in FIGS. 5(a) and 5(b).

[1] = Phosphorylation to nucleotides in vivo
K2112 = conditions: Colon Cancer
Source text: (§1) GI50, TGI and LC50 are values representing the concentrations at which the PG (percent of growth inhibition), defined below, is +50, 0, and −50, respectively.
(§2) If (Mean ODtest−Mean ODtzero)≧0. then PG=100×(Mean ODtest−Mean ODtzero)/(Mean ODctrl−Mean ODtzero)
(§3) If (Mean ODtest−Mean ODtzero)<0. then PG=100×(Mean ODtest−Mean ODtzero)/(Mean ODtzero)
(§4) Mean ODtzero=The average of optical density measurements of SRB-derived color just before exposure of cells to the test compound.
(§5) Mean ODtestThe average of optical density measurements of SRB-derived color after 48 hours exposure of cells to the test compound.
(§6) Mean ODctrl=The average of optical density measurements of SRB-derived color after 48 hours with no exposure of cells to the test compound.
(§7) If these response parameters could not be obtained by interpolation, the value given for each response parameter is the highest concentration tested and is preceded by a “>” sign.

MDA-MB-231/ATCC = conditions: Breast Cancer, PG +50, 48 hours
Source text: as §1, §2, §3, §4, §5, §6, §7

cytidine deaminase = cytidine deaminase (Homo sapiens, UniProt P32320); test: Enzymatic studies of deamination
Sequence of cytidine deaminase (P32320 whole entry, species assumed): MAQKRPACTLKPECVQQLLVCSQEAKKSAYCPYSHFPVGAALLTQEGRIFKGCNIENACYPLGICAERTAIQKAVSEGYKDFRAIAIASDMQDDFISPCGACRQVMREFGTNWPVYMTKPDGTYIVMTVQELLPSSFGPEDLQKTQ

Nc1ccn([C@@H]2CO[C@H](CO)O2)c(=O)n1 [(−)-OddC, (−)-(2S,4S)-1-(2-hydroxymethyl-1,3-dioxolan-4-yl)cytosine]
Cures/Total (survivors equal or greater than 45 day life span) (Leukemia P388 cells): one long term survivor
Mean Survival Time (Leukemia P388 cells; twice a day on days 1 to 5, 10^6 P388 cells ip on day 0): 27 days
Log10GI50 (RL-60(TB)): −6.28
Log10GI50 (K-562): −4.59
Log10GI50 (SR): −5.95
Log10GI50 (NCI-H23): −4.92
Log10GI50 (NCI-H522): −6.06
Log10TGI (COLO205; PG 0, 48 hours): >−4.00
Log10GI50 (COLO205; PG +50, 48 hours): −4.03
Log10GI50 (MALME-3M): −4.51
LOG10GI50 (OVCAR-5): −4.41
LOG10TGI (SK-OV-3; PG 0, 48 hours): >−4.00
LOG10GI50 (SK-OV-3; PG +50, 48 hours): −5.35
LOG10GI50 (ACHN): −6.46
LOG10GI50 (SN12C): −6.27
LOG10GI50 (UO-31): −5.60
LOG10GI50 (MCF7): −5.95
LOG10TGI (MCF7/ADR-RES; PG 0, 48 hours): >−4.00
LOG10GI50 (MCF7/ADR-RES; PG +50, 48 hours): −4.97
LOG10GI50 (HS578T): >−4.00
LOG10TGI (MDA-MB-435; PG 0, 48 hours): >−4.00
LOG10GI50 (MDA-MB-435; PG +50, 48 hours): −4.62
LOG10GI50 (T-47D): >−4.00
IC50 (CEM cells): 25 ± 30 nM
Cytotoxicity in words (tumor cell lines tested): more cytotoxic than AraC
Effect on HepG2 tumors in words (HepG2 tumors): active
Effect on HepG2 tumors in words (HepG2 tumors; listed as (L)-OddC): effective
Net cell kill (log 10) (HepG2 tumors; i.p. treatment): 0.67
Net cell kill (log 10) (HepG2 tumors; oral treatment): 0.87
Phosphorylation in vivo [1]: can be phosphorylated to mono-, di- and tri-phosphate nucleotide
Log10TGI (K2112; PG 0, 48 hours): >−4.00
Log10GI50 (K2112; PG +50, 48 hours): >−4.00
LOG10GI50 (MDA-MB-231/ATCC): >−4.00
Substrate for deaminase / deamination by cytidine deaminase (cytidine deaminase): not a substrate; also recorded: not deaminated
